The values below come from patent US20050130979A1, “Treatment of demyelinating disorders” (Eisai Co., Ltd., priority 1998, published 2005).

The test system of this test is Lewis rat acute EAE. Briefly: Acute-active EAE in Lewis rats (MBP immunisation), clinical disease scoring and weight. It counts as in vivo. The following applies: for Incidence (%) / Incidence (animals with neurological deficit / group): Lewis rat acute EAE; for Duration / Onset / Peak Disease Score / Cumulative Disease Score / Weight Loss: mean; for Peak Disease Score: scale 0-5; for Cumulative Disease Score: summation of daily scores; for neurological deficits during acute EAE (in words) / cumulative disease score relative to vehicle treatment (in words) / peak disease score relative to vehicle treatment (in words) / severity of paralysis during EAE (in words) / disease duration relative to vehicle treatment (in words) / disease onset relative to vehicle treatment (in words): rats; for neurological deficits during acute EAE (in words): following treatment; for severity of paralysis during EAE (in words): vs vehicle. On the procedure:
Female Lewis rats (205+10 g) obtained from Charles River, Kent, UK, were housed in pairs under environmentally controlled conditions (6:00 a.m.-6:00 p.m. light/dark cycle; 22-24° C.; 45-55% humidity) and allowed free access to food and water. […] Female Biozzi mice (20±5 g) obtained from Harlan, UK, were housed under the conditions described above. Experimental groups consisted of 7-10 animals.
Rats were immunised in each hind foot with 50 μl of inoculum containing 50 μg guinea pig myelin basic protein (MBP, prepared by the method of Dunkley and Carnegie (1974); final concentration […]), emulsified in Freund's complete adjuvant (CFA; Sigma, UK) containing Mycobacterium tuberculosis H37Ra (final concentration 5.5 mg/ml; Difco Laboratories, UK).
Animals were weighed and monitored daily and clinical disease scored as (0) no clinical signs; (1) flaccid tail and weight loss; (2) hind limb hypotonia with further weight loss; (3) complete hind limb paralysis; (4) paraplegia and (5) death. […] During the period of compound administration (10-16 days post immunisation; dpi) animals were scored 15 h after injection of vehicle or NBQX to avoid any acute effect of treatment on disease score.
NBQX was initially dissolved in NaOH and diluted with water. pH was adjusted with HCl. Rats were injected i.p. twice daily (9 a.m. and 5 p.m.) on days 10 to 16 post immunisation with either vehicle or NBQX in the dose of 30 mg/kg. Mice were injected i.p. either twice daily (9 a.m. and 5 p.m.) on days 10 to 16 post immunisation or once daily (9 a.m.) on days 26 to 42 post immunisation with either vehicle or NBQX in the dose of 30 mg/kg.
GYKI53773 was suspended in 5% cremophore in saline. Rats were injected i.p. twice daily (9 a.m. and 5 p.m.) on days 10 to 16 post immunisation with either vehicle or GYKM53773 in the dose of 30 mg/kg.
GYKM52466 was suspended in 5% cremophore in water. Rats were injected i.p. twice daily (9 a.m. and 5 p.m.) on days 10 to 16 post immunisation with either vehicle or GYKI52466 in the dose of 30 mg/kg.
BIIR561 was suspended in 5% cremophore in water. Rats were injected i.p. twice daily (9 a.m. and 5 p.m.) on days 10 to 16 post immunisation with either vehicle or BIIR561 in the dose of 30 mg/kg.
CP465022 was suspended in 5% cremophore in water. Rats were injected i.p. twice daily (9 a.m. and 5 p.m.) on days 10 to 16 post immunisation with either vehicle or CP465022 in the dose of 10 mg/kg.
MPQX was initially dissolved in NaOH and diluted with water. pH was adjusted with HCl. Rats were injected i.p. twice daily (9 a.m. and 5 p.m.) on days 10 to 16 post immunisation with either vehicle or MPQX in the dose of 10 mg/kg.

Setting [1] is: BIIR561 30 mg/kg i.p. twice daily 10-16 dpi.
The mark [2] stands for this setting: 30 mg/kg i.p. twice daily 10-16 dpi.
[3] abbreviates: 30 mg/kg i.p. twice daily 10-16 dpi, 30 mg/kg.
[4] abbreviates: CP465022 10 mg/kg i.p. twice daily 10-16 dpi.
[5] abbreviates: 10 mg/kg i.p. twice daily 10-16 dpi.
Setting [6] is: 10 mg/kg i.p. twice daily 10-16 dpi, 10 mg/kg.
The mark [7] stands for this setting: GYKI52466 30 mg/kg i.p. twice daily 10-16 dpi.
The mark [8] stands for this setting: MPQX 10 mg/kg i.p. twice daily 10-16 dpi.
[9] abbreviates: GYKI53773 30 mg/kg i.p. twice daily 10-16 dpi.

“Also recorded” adds a separate entry of the source.

On to `CN(C)Oc1ccccc1-c1nc(-c2ccccc2)no1` [BIIR561, 5-(2-[N,N-dimethylamino]oxy-phenyl)-3-phenyl-1,2,4-oxadiazol], for which the “neurological deficits during acute EAE (in words)” value is listed as “reduced neurological deficits”. Also, under setting [1], the “Incidence (%)” value is listed as “(100) %”, the “Incidence (animals with neurological deficit / group)” value is 16/16, the Duration amounted to 3.9 days and the “Peak Disease Score” value worked out at 2.6. Under setting [1], the “Cumulative Disease Score” value was 7.8. Besides, the Onset (n = 16 for BIIR561, 30 mg/kg i.p. twice daily 10-16 dpi) amounted to 12.4 d.p.i. The “Weight Loss” value (weight on cessation of experiment as percent of maximum weight before disease onset, BIIR561 30 mg/kg i.p. twice daily) stood at 17%. Also, under setting [2], the “cumulative disease score relative to vehicle treatment (in words)” value is on record as “significantly reduced” and the “severity of paralysis during EAE (in words)” value (shortened to “severity”) was “redcues the severity of paralysis”. Further, under setting [3], the “peak disease score relative to vehicle treatment (in words)” value was “significantly reduced”.
Regarding `CCN(CC)Cc1cccc(C=Cc2nc3ccc(F)cc3c(=O)n2-c2ccccc2Cl)n1` [CP465022, 3-(2-chlorophenyl)-2-[2-[6-[(diethylamino)methyl]-2-pyridinyl]ethenyl]-6-fluoro-4(3H)-quinazolinone], the “neurological deficits during acute EAE (in words)” value was “reduced neurological deficits”. For the same molecule, under setting [4], the “Incidence (%)” value is “(89) %”, the “Incidence (animals with neurological deficit / group)” value is reported as 8/9, the Duration was found to be 3.4 days and the “Peak Disease Score” value was found to be 2.0. Moreover, the “Cumulative Disease Score” value under setting [4] stood at 7.2. Where the note is “n = 8 for CP465022, 10 mg/kg i.p. twice daily 10-16 dpi”, this molecule gave an Onset of 13.4 d.p.i. For the setting “weight on cessation of experiment as percent of maximum weight before disease onset, CP465022 10 mg/kg i.p. twice daily”, the “Weight Loss” value is 20%. Moreover, under setting [5], the “cumulative disease score relative to vehicle treatment (in words)” value is recorded as “reduced”, the “disease duration relative to vehicle treatment (in words)” value is “reduced”, the “disease onset relative to vehicle treatment (in words)” value is on record as “significantly delayed” and the “severity” value is on record as “reduces the severity of paralysis”. Under setting [6], the “peak disease score relative to vehicle treatment (in words)” value is “significantly reduces; also recorded: reduced”.
With `CC1=NN=C(c2ccc(N)cc2)c2cc3c(cc2C1)OCO3` [GYKI52466, 1-(-aminophenyl)-4-methyl-7,8-methylene-dioxy-5H-2,3-benzodiazepine], the “neurological deficits during acute EAE (in words)” value is “reduced neurological deficits”. Under setting [7], the “Incidence (%)” value was “(60) %”, the “Incidence (animals with neurological deficit / group)” value was 15/16, the Duration amounted to 4.0 days and the “Peak Disease Score” value is on record as 2.4. Besides, the “Cumulative Disease Score” value under setting [7] came out at 8.0. Also, the Onset (n = 15, GYKI52466 30 mg/kg i.p. twice daily 10-16 dpi) is reported as 11.6 d.p.i. Where the note is “weight on cessation of experiment as percent of maximum weight before disease onset, GYKI52466 30 mg/kg i.p. twice daily”, the “Weight Loss” value came to 20%. Moreover, under setting [2], the “cumulative disease score relative to vehicle treatment (in words)” value is “significantly reduced” and the “severity” value is “reduces the severity of paralysis”. Moreover, under setting [3], the “peak disease score relative to vehicle treatment (in words)” value is “significantly reduced”.
With `O=c1[nH]c2cc(C(F)(F)F)c(N3CCOCC3)cc2n(CP(=O)(O)O)c1=O` [MPQX], the “neurological deficits during acute EAE (in words)” value is listed as “reduced neurological deficits”. Under setting [8], the “Incidence (%)” value is “(58) %”, the “Incidence (animals with neurological deficit / group)” value is listed as 7/12, the Duration stood at 1.7 days and the “Peak Disease Score” value was 1.2. Further, under setting [8], the “Cumulative Disease Score” value amounted to 3.2. Where the note is “n = 7 for MPQX, 10 mg/kg i.p. twice daily 10-16 dpi”, this molecule registered an Onset of 12.3 d.p.i. For the same molecule, the “Weight Loss” value (weight on cessation of experiment (18 dpi) as percent of maximum weight before disease onset, MPQX 10 mg/kg i.p. twice daily) is listed as 22%. In addition, under setting [5], the “cumulative disease score relative to vehicle treatment (in words)” value is reported as “reduced”, the “disease duration relative to vehicle treatment (in words)” value is given as “reduced”, the “disease onset relative to vehicle treatment (in words)” value is on record as “significantly delayed” and the “severity” value was “reduces the severity of paralysis”. Moreover, under setting [6], the “peak disease score relative to vehicle treatment (in words)” value is reported as “significantly reduces; also recorded: reduced”.
For “(−)1-(4-aminophenyl)-4-methyl-7,8-methylenedioxy-4,5-dihydro-^3-methylcarbamoyl-2,3-benzodiazepine [GYKI53773]”, the “neurological deficits during acute EAE (in words)” value was “reduced neurological deficits”. Moreover, under setting [9], the “Incidence (%)” value is “(60) %”, the “Incidence (animals with neurological deficit / group)” value is recorded as 6/10, the Duration was found to be 1.9 days and the “Peak Disease Score” value is on record as 0.9. The “Cumulative Disease Score” value under setting [9] was found to be 2.1. This molecule gave an Onset (n = 6 for GYKI53773, 30 mg/kg i.p. twice daily 10-16 dpi) of 12.7 d.p.i. For the same molecule, under “weight on cessation of experiment (20 dpi) as percent of maximum weight before disease onset, GYKI53773 30 mg/kg i.p. twice daily”, the “Weight Loss” value was found to be 16%. Besides, under setting [2], the “cumulative disease score relative to vehicle treatment (in words)” value is on record as “significantly reduced”, the “disease duration relative to vehicle treatment (in words)” value is reported as “significantly reduced” and the “severity” value was “reduces the severity of paralysis”. Under setting [3], the “peak disease score relative to vehicle treatment (in words)” value was “significantly reduced”. Besides, the “peak disease score relative to vehicle treatment (in words)” value (30 mg/kg i.p. twice daily 10-16 dpi, listed as GYKM53773, 30 mg/kg) is “significantly reduces”.
